# Data from patent US20230354703A1, “ORGANIC COMPOUND AND LIGHT-EMITTING DEVICE” (SEMICONDUCTOR ENERGY LABORATORY CO., LTD., priority 2022, published 2023).
# Key:
# [1] = water-solubility examined by calculation: polarization term δp of the solubility parameter (classical molecular dynamics, Desmond/OPLS2005); settings: from the difference between the calculated δp and the δp of water (16.0); larger difference = lower solubility
# Procedure: Then, the water-solubility of 2,9hpp2Phen was examined by calculation and the results are shown.
# Desmond was used as software for the classical molecular dynamics calculation, and OPLS2005 was used for the force field. The calculation was performed using a high performance computer (Apollo 6500 manufactured by Hewlett Packard Enterprise Development).
# A standard cell containing approximately 32 molecules is used a calculation model. […] After that, the structures are moved and rotated at random to move the molecules by Monte Carlo simulated annealing using OPLS2005 for the force field. Furthermore, the molecules are moved toward the center of the standard cell such that the density thereof is maximized; thus, the initial arrangement is obtained.
# As a basis function, 6-31G** was used, and as a functional, B3LYP-D3 was used. […]
# The aforementioned initial arrangement is subjected to Brownian motion simulation and then defined in an NVT ensemble; subsequently, calculation in an NPT ensemble is performed for an enough relaxation time (30 ns) under the conditions of 1 atm and 300 K with respect to time steps that reproduce molecular vibration (2 fs), so that an amorphous solid is calculated. […]
# The actually measured value δp corresponding to the polarization term for the water-solubility parameter is disclosed as 16.0 in Japanese Published Patent Application No. 2017-173056, for example. […]
# [2] = statement in words, background/description; cited from earlier work
smiles,measurement,setting,value
"c1cc2ccc3ccc(N4CCCN5CCCN=C54)nc3c2nc1N1CCCN2CCCN=C21 [2,9hpp2Phen, 2,9-bis(1,3,4,6,7,8-hexahydro-2H-pyrimido[1,2-a]pyrimidin-1-yl)-1,10-phenanthroline]",solubility in water compared with hpp2Py,[1],less soluble in water than hpp2Py
"c1cc(N2CCCN3CCCN=C32)c2ccc3c(N4CCCN5CCCN=C54)ccnc3c2n1 [4,7hpp2Phen, 4,7-bis(1,3,4,6,7,8-hexahydro-2H-pyrimido[1,2-a]pyrimidin-1-yl)-1,10-phenanthroline]",solubility in water compared with hpp2Py,[1],less soluble in water than hpp2Py
"c1cc(N2CCCN3CCCN=C32)nc(N2CCCN3CCCN=C32)c1 [hpp2Py, 1,1′-pyridine-2,6-diyl-bis(1,3,4,6,7,8-hexahydro-2H-pyrimido[1,2-a]pyrimidine)]",solubility in water,[2],highly soluble in water
